Measurements published in PMC11713868, “Cryo-EM Structure of Recombinantly Expressed hUGDH Unveils a Hidden, Alternative Allosteric Inhibitor” (Biochemistry, 2024).
One block for each molecule: values may come before it.

How the values were obtained:
[1] = target: T1, Human UDP-glucose dehydrogenase (hUGDH) (Homo sapiens, UniProt O60701); assay: NADH absorbance ([…] nm) steady-state kinetics, global fit of UDP-Glc saturation curves; assay type: biochemical; design: gene UGDH; recombinant unliganded hUGDH, His tag removed
T1 sequence (O60701 1-494): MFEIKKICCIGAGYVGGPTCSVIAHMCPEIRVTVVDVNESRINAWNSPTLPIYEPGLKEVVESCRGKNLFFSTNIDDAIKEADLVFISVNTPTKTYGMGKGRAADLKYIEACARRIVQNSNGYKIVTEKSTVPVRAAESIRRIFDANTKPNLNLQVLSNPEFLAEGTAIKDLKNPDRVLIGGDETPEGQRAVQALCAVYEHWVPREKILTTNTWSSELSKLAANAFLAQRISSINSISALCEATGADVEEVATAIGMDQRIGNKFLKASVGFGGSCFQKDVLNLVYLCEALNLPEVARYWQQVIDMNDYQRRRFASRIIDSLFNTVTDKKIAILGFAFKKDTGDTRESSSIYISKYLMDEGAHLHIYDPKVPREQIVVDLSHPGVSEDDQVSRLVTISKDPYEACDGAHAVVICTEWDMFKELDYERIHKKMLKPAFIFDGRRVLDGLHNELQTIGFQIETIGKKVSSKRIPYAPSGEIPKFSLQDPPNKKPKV

[2] = target: T1, Human UDP-glucose dehydrogenase (hUGDH); assay: cryo-EM structure ([…] Å) of copurified complex, HPLC/NMR/MS ligand identification; Ki from global fit of competitive inhibition kinetics; assay type: biochemical; design: gene UGDH; recombinant hUGDH, N-terminal His tag removed by TEV; hexamer
purified protein = substrate: NC(=O)c1ccc[n+]([C@@H]2O[C@H](COP(=O)([O-])OP(=O)(O)OC[C@H]3O[C@@H](n4cnc5c(N)ncnc54)[C@H](O)[C@@H]3O)[C@@H](O)[C@H]2O)c1; assay: purified protein; assay type: biochemical, Homo sapiens; details: NAD^+ binding (NB) domain; negative cooperativity; varied: cofactor
[3] = target: the molecule itself; assay: cryo-EM structure; hUGDH:UX4O (copurified UDP-4-keto-xylose bound), 1 mg/mL, 20 mM Hepes pH 7.5, 100 mM NaCl, 1 mM DTT; C2 reconstruction at 2.38 Å, E-omega state

Ki [1]: 440 ± 20 nM
Molecule: O=c1ccn([C@@H]2O[C@H](COP(=O)(O)OP(=O)(O)O[C@H]3OC[C@@H](O)[C@H](O)[C@H]3O)[C@@H](O)[C@H]2O)c(=O)[nH]1 [UDP-Xyl, UDP-xylose]

Ki [2]: 750 ± 60 nM
Molecule: O=C1CO[C@H](OP(=O)(O)OP(=O)(O)OC[C@H]2O[C@@H](n3ccc(=O)[nH]c3=O)[C@H](O)[C@@H]2O)[C@H](O)[C@H]1O [UX4O, UDP-4-keto-xylose]

B1: Human UDP-glucose dehydrogenase (hUGDH) (enzyme)
chain: MFEIKKICCIGAGYVGGPTCSVIAHMCPEIRVTVVDVNESRINAWNSPTLPIYEPGLKEVVESCRGKNLFFSTNIDDAIKEADLVFISVNTPTKTYGMGKGRAADLKYIEACARRIVQNSNGYKIVTEKSTVPVRAAESIRRIFDANTKPNLNLQVLSNPEFLAEGTAIKDLKNPDRVLIGGDETPEGQRAVQALCAVYEHWVPREKILTTNTWSSELSKLAANAFLAQRISSINSISALCEATGADVEEVATAIGMDQRIGNKFLKASVGFGGSCFQKDVLNLVYLCEALNLPEVARYWQQVIDMNDYQRRRFASRIIDSLFNTVTDKKIAILGFAFKKDTGDTRESSSIYISKYLMDEGAHLHIYDPKVPREQIVVDLSHPGVSEDDQVSRLVTISKDPYEACDGAHAVVICTEWDMFKELDYERIHKKMLKPAFIFDGRRVLDGLHNELQTIGFQIETIGKKVSSKRIPYAPSGEIPKFSLQDPPNKKPKV
notes: UDP-glucose dehydrogenase, human, UniProtKB O60701; also called hUGDH:UX4O (the same protein with copurified UDP-4-keto-xylose); unliganded hUGDH; source: E. coli, purified (TALON column, TEV protease digestion, Superdex 200); not shown: histidine tag, N-terminal, cleaved
Km (purified protein): 83.4 ± 10.4 µM | stoichiometry N [3]: 6
